These results are taken from US10849867B2, “Methods and compositions for treating conditions associated with an abnormal inflammatory response” (First Wave Bio, Inc., priority 2015, dated 2020).

Where only a bound is given, the exact number is not on record here.

One assay relates to Jurkat T cells. Briefly: Mitochondrial transmembrane potential (ΔΨm) in Jurkat T cells, TMRM flow cytometry with oligomycin (Example 1). Type of assay: cell-based. The note with it: relative to negative controls. The text has this:
Objective. […] Model. The Jurkat T cell model is commonly used to study the potential effects of compounds on T cells in vitro. This cell line allows investigation of stimuli and mechanisms that regulate T cell mitochondrial function and survival. As T cells, Jurkats have a lymphocyte appearance and replicate in culture in suspension. They contain respiring mitochondria and as such response to mitochondrial uncouplers such as niclosamide may be assessed. Uncoupling is identified and quantified by a detecting a drop in the electrochemical gradient across the mitochondrial inner membrane (ΔΨm) that is not associated with a corresponding increase in oxidative phosphorylation. […] Cell culture. Jurkat T cells were purchased from the American Type Culture Collection (Manassas, Va.) and sub-cultured according to instructions from the supplier. Prior to experiments, cells were cultured in RPMI 1640 containing 10% FBS-HI, 50 units penicillin/mL and 50 μg streptomycin/mL, and maintained in log phase prior to experimental setup. […] TMRM has been described as one of the best fluorescent dyes for dynamic and in situ quantitative measurements because it is rapidly and reversibly taken up by live cells and mitochondria. […] Ratios of the fluorescence intensity of each treated sample to the control sample mean were then calculated as a measure of relative decrease in ΔΨm. […]
A general note: Flow cytometry measures light scatter and fluorescence of single cells or particles in a stream.

Assay [1] concerns lamina propria T cell (CD3+). In words: Cell death in lamina propria T cell from active IBD, 7-AAD staining (FIG. 1). The class given is cell-based, human. The following applies: 10 μM for 16 hours, LPMC from IBD subjects, versus DMSO. On the procedure: Cell death in lamina propria T cell (CD3+) was determined by measuring 7-AAD staining by flow cytometry. FIG. 1. […] Cell death in lamina propria T cell (CD3+) was determined by measuring 7-AAD staining by flow cytometry.

The test system of the next assay is TNBS-induced colitis. Briefly: TNBS colitis in mice, niclosamide suspension administered rectally as enema (Example 9). The class given is in vivo, male Balb/c mice. The text has this: Model: Intra-rectal administration of trinitrobenzene sulfonic acid (TNBS) to mice results in colitis. TNBS elicits cell-mediated immune responses and induces transmural inflammation in the gut with morphological and histopathological features similar to those of human inflammatory bowel disease. TNBS induces diffuse colonic inflammation, characterized by increased leukocyte infiltration, edema, and ulceration. It is very well reported that administration of TNBS is associated with predominant activation of Th1-mediated immune response manifested by increased cytokines such as interferon-γ (IFN-γ), tumor necrosis factor-α (TNF-α) and interleukin-17A (IL-17A) as well as dense infiltration of CD4+ T cells. Disease activity in the TNBS model can be determined by loss of body weight, histopathological evaluation of the colon showing evidence of inflammatory damage and evidence of pro-inflammatory cytokines detected in colon tissue. Animals and Treatments: Studies of TNBS colitis were performed in 8- to 12-week-old male Balb/c mice (Jackson Laboratories, stock number 000651). […] Weight changes were recorded daily and tissues were collected for histologic study and RNA analysis at the end of the study. […] Gene expression was calculated using the ΔΔCt algorithm.

`O=C(Nc1ccc([N+](=O)[O-])cc1Cl)c1cc(Cl)ccc1O` [Niclosamide, 5-chloro-N-(2-chloro-4-nitrophenyl)-2-hydroxybenzamide]: the “change in ΔΨm in Jurkat cells” value in the assay with Jurkat T cells (1-500 μM, 60 minutes, oligomycin present, TMRM) is “dose-related decrease”. Besides, in the assay with Jurkat T cells (Jurkat cells), the “concentrations of niclosamide that significantly decreased ΔΨm (p<0.05)” value was at least 5 µM. In addition, the “cell death in lamina propria T cell (CD3+)” value in assay [1] is “induces cell death”. The body weight entry in the assay with TNBS-induced colitis (rectal 30 mg/kg on days 1 and 2, TNBS-induced colitis) is “recovery of body weight”. In the assay on TNBS-induced colitis (rectal 30 mg/kg on days 1 and 2, compared to vehicle control or TNBS only), the “colitis score (H&E analysis of colon biopsies)” value is “significantly lower”.
